Experimental data: paper PMC12548419 (Journal of Virology, 2025)
“And” between values parts separate entries of the source, which are not always exact repeats. Equal values may be shown once. Read-outs that look alike come from different tables or passages of the source.

Experiments:
SFTSV [1] = test: microbe, parasite or virus in culture; format: cell-based; conditions: for EC50: Severe fever with thrombocytopenia syndrome virus
LCMV [2] = test: microbe, parasite or virus in culture; format: cell-based, lymphocytic choriomeningitis virus (strain Armstrong); conditions: for EC50: Mammarenavirus choriomeningitidis
SFTSV [3] = format: cell-based, severe fever with thrombocytopenia syndrome virus
LCMV [4] = format: cell-based, lymphocytic choriomeningitis virus
SFTSV [5] = tested on: SFTSV; set-up: species or system A129 mice; conditions: mouse, in vivo
LCMV [6] = tested on: LCMV; set-up: species or system C57BL/6-Prf1^tm1Sdz/J mice; conditions: mouse, in vivo
[7] = Sprague-Dawley, rat, in vivo, po, 21 mg/kg
[8] = cynomolgus monkey, in vivo, po, 10.7 mg/kg
in vivo [9] = conditions: Sprague-Dawley, rat, po, 10 mg/kg
in vivo [10] = conditions: cynomolgus monkey, po, 5 mg/kg
[11] = A549, 48 h, read-out: EC50 (μM) mean ± sd SFTSV A549
[12] = Huh-7, 48 h, read-out: EC50 (μM) mean ± sd SFTSV Huh-7
[13] = Vero, 48 h, read-out: EC50 (μM) mean ± sd SFTSV Vero
[14] = read-out: EC50 range for SFTSV over all cell lines evaluated
[15] = A549, 48 h, read-out: EC50 (μM) mean ± sd LCMV A549
[16] = BHK-21, 48 h, read-out: EC50 (μM) mean ± sd LCMV BHK-21
[17] = Vero, 48 h, read-out: EC50 (μM) mean ± sd LCMV Vero
[18] = read-out: EC50 range for LCMV over all cell lines evaluated

Compound | SI values SFTSV A549 (SFTSV [1]) | SI values SFTSV Vero (SFTSV [1]) | EC50 (SFTSV [1]; [11]) [µM] | EC50 (SFTSV [1]; [12]) [µM] | EC50 (SFTSV [1]; [13]) [µM] | EC50 (SFTSV [1]; [14]) [µM] | SI values LCMV A549 (LCMV [2]) | SI values LCMV BHK-21 (LCMV [2]) | SI values LCMV Vero (LCMV [2]) | EC50 (LCMV [2]; [15]) [µM] | EC50 (LCMV [2]; [16]) [µM] | EC50 (LCMV [2]; [17]) [µM] | EC50 (LCMV [2]; [18]) [µM] | leukopenia, lymphocytopenia and reduction in platelet count (hematological parameters) (SFTSV [5]) | lung pathology scores (SFTSV [5]) | spleen histopathology scores (SFTSV [5]) | splenomegaly (spleen-to-body weight ratio) (SFTSV [5]) | virus load in the liver, spleen, lung, and kidney (qRT-PCR and immunoplaque assays) (SFTSV [5]) | body weight (LCMV [6]) | CC50 (in vitro) [µM] | other results
CC(=O)OC[C@@]1(F)O[C@@H](n2ccc(=O)n(COC(=O)c3cccnc3)c2=O)[C@H](OC(C)=O)[C@@H]1OC(C)=O [VV251] | > 96.94 | > 168.75 | 5.16 | 0.65 | 2.96 | 0.65 to 5.16 | > 6559.96 | > 3177.56 | > 3628.85 | 0.08 | 0.16 ± 0.05 | 0.14 | 0.08 to 0.16 | relieved | significantly lower pathology scores | substantially reduced | significantly ameliorated | significant reductions | remained stable | > 500 | fold lower EC50 than T-705 against LCMV (LCMV [2]): 849.6 fold and 632.9 fold; antiviral effect on addition of exogenous natural nucleosides (SFTSV [3]): competitively reversed by supplementation with exogenous uridine and cytidine; antiviral effect on addition of exogenous natural nucleosides (LCMV [4]): competitively reversed by supplementation with exogenous uridine and cytidine; plasma levels of IFN-γ, TNF-α, IL-1β and IL-6 (SFTSV [5]): significantly reduced; body weight (SFTSV [5]; po, 1 mg/kg): significant reduction in body weight; survival (SFTSV [5]; po, 1 mg/kg): only one mouse surviving until the end of the study; mice that died (SFTSV [5]; po, 5 mg/kg): one; body weight (SFTSV [5]; po, 10 mg/kg): remained stable; hematological parameters (white blood cell, platelet, lymphocyte count) (LCMV [6]): ameliorated viremia induced by LCMV infection; number of viral RNA copies relative to the vehicle group (LCMV [6]): more than one order of magnitude lower; plasma IFN-γ and granulocyte colony-stimulating factor (LCMV [6]): statistically significant reduction; spleen damage (spleen size, pathology score, H&E staining) (LCMV [6]): ameliorated spleen damage efficiently; viral RNA copies in the liver, spleen, lung, and kidney (qRT-PCR) (LCMV [6]): significantly decreased; viral titer in the liver, spleen, lung, and kidney (immunoplaque assay) (LCMV [6]): significantly decreased; AUC0-t [7]: 9,714 ng·h/mL; Cmax [7]: 1,598 ng/mL; T1/2 [7]: 6.34 ± 0.75 h; AUC0-t [8]: 14,922 ng·h/mL; Cmax [8]: 2,358 ng/mL; T1/2 [8]: 5.45 ± 0.82 h
O=c1ccn([C@@H]2O[C@](F)(CO)[C@@H](O)[C@H]2O)c(=O)[nH]1 [4′-FlU, 4′-Fluorouridine] | > 210.67 | > 245.98 | 2.37 ± 0.16 | 2.33 ± 0.51 | 2.03 ± 0.82 | 2.03 to 2.37 | > 4826.57 | > 3389.68 | > 12697.20 | 0.1 ± 0.01 | 0.15 ± 0.05 | 0.04 ± 0.01 | 0.04 to 0.15 |  |  |  |  |  |  | > 500 | SI values SFTSV Huh-7 (SFTSV [1]): > 214.23; AUC0-t (in vivo [9]): 7280 ng·h/mL; Cmax (in vivo [9]): 1370 ng/mL; half-life (in vivo [9]): 203 ± 84.6 min; AUC0-t (in vivo [10]): 10700 ng·h/mL; Cmax (in vivo [10]): 1500 ng/mL; half-life (in vivo [10]): 409 ± 27.6 min
NC(=O)c1nc(F)c[nH]c1=O [T-705, favipiravir] | > 1.79 | > 24.23 | 280 | 3.12 | 20.6 |  | > 7.36 |  | > 5.64 | 68 |  | 88.6 |  | relieved | significantly lower pathology scores | substantially reduced | significantly ameliorated | significant reductions | parallel body weight with that of the vehicle-treated group | > 500 | SI values SFTSV Huh-7 (SFTSV [1]): > 160.32; infectious viral titers in the spleen (immunoplaque assays) (SFTSV [5]; 300 mg/kg): marked decreases; plasma levels of IFN-γ, TNF-α, IL-1β and IL-6 (SFTSV [5]; 300 mg/kg): significantly reduced; viral RNA copies in the spleen (qRT-PCR) (SFTSV [5]; 300 mg/kg): no statistically significant reduction; body weight (SFTSV [5]; po, 300 mg/kg): slight initial weight loss followed by weight recovery at 5 days post-infection; survival (SFTSV [5]; po, 300 mg/kg): survived; spleen damage (spleen size, pathology score, H&E staining) (LCMV [6]): marked pathological lesions; viral RNA copies in the liver, spleen, lung, and kidney (qRT-PCR) (LCMV [6]): no reduction in the number of viral RNA copies was observed except in the lungs; viral titer in the liver, spleen, lung, and kidney (immunoplaque assay) (LCMV [6]): reduced the viral titer in the tissues; plasma IFN-γ and granulocyte colony-stimulating factor (LCMV [6]; 300 mg/kg): no significant effect; survival (LCMV [6]; po, 300 mg/kg): no survivors remaining by the end of the study
